Experiments:
[1] = system: trifluridine (FTD) resistant strain of colon cancer cell strain DLD-1; assay: IC50 measurement on trifluridine resistant strain derived from DLD-1; assay type: cell-based; settings: Homo sapiens; DLD-1 maintained 6 months or longer in the presence of trifluridine; confirmed resistant strain; read-out: IC50 with respect to trifluridine for the cultured cells
Method: Quantitative analysis of a microRNA was performed by tunneling current measurement. Colon cancer cell strain (DLD1) and 5-fluorouracil (5-FU) or trifluridine (FTD) resistant strains were used as samples.
Cancer cell strain DLD-1 obtained from a cell bank was maintained in a culture for 6 months or longer in the presence of trifluridine or 5-fluorouracil (Aldrich-Sigma) (about […]). The maintained culture was passaged about twice a week to maintain 60 to 80% confluence at 37° C. in a
DMEM medium supplemented with 10% serum on a plastic dish.

[2] = system: 5-fluorouracil (5-FU) resistant strain of colon cancer cell strain DLD-1; assay: IC50 measurement on 5-fluorouracil resistant strain derived from DLD-1; assay type: cell-based; settings: Homo sapiens; DLD-1 maintained 6 months or longer in the presence of 5-fluorouracil; confirmed resistant strain; read-out: IC50 with respect to 5-fluorouracil for the cultured cells

| IC50 [1] [µM] | IC50 [2] [µM] | Compound |
| --- | --- | --- |
| 300 |  | O=c1[nH]c(=O)n([C@H]2C[C@H](O)[C@@H](CO)O2)cc1C(F)(F)F [trifluridine] |
|  | 300 | O=c1[nH]cc(F)c(=O)[nH]1 [5-fluorouracil] |

Source: patent US20230194472A1, “MICRORNA ANALYSIS USING TUNNELING CURRENT” (Osaka University, priority 2019, published 2023)
